target: T1, human chemokine receptor 2 isoform B (Homo sapiens, UniProt P41597); experiment: Calcium mobilization assay (FLIPR, antagonist activity against MCP-1); type: cell-based; details: Ca mobilisation assay, CHOK1-CCR2B-A5 cells, inhibition of calcium increase induced by 20 nM MCP-1
T1 construct: host or cells: CHOK1-CCR2B-A5 cells (CHO-K1)
T1 sequence (P41597 1-360 isoform P41597-2): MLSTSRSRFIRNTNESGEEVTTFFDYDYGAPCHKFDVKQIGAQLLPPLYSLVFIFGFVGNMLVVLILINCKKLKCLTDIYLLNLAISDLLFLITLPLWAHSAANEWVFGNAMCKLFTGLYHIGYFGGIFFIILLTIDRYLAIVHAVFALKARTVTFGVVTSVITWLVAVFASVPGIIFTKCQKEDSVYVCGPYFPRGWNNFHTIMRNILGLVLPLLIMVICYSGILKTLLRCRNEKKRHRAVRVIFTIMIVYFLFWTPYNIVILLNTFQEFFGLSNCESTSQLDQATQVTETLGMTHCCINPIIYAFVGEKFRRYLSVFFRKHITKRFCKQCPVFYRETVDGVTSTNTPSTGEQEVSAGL
How it was run: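 CHOK1 cells stably overexpressing human CCR2B, loaded with 4 μM Fluo-4 for 2 h at 30° C, compounds added and agonist signal read by FLIPR for 80 s. After 20-30 min at 30° C, 20 nM MCP-1 was added and fluorescence read again. IC50 is 50% inhibition of specific calcium increase (max minus basal).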

Row | IC50 | SMILES
1 | 167 nM | O=C1CCN(c2ccc(OC(F)(F)F)c(Cl)c2)CCN1CCCC(=O)N1CCC2(CC2)[C@H](O)C1 [Example 122, 1-(3-Chloro-4-trifluoromethoxy-phenyl)-4-[4-((S)-4-hydroxy-6-aza-spiro[2.5]oct-6-yl)-4-oxo-butyl]-[1,4]diazepan-5-one]
2 | 4.4 nM | C[C@H]1C(=O)N(CCCC(=O)N2CCC3(CC3)[C@H](O)C2)CCN1C(=O)Nc1ccc(C(F)(F)F)c(Cl)c1 [Example 33, (S)-4-[4-((S)-4-Hydroxy-6-aza-spiro[2.5]oct-6-yl)-4-oxo-butyl]-2-methyl-3-oxo-piperazine-1-carboxylic acid (3-chloro-4-trifluoromethyl-phenyl)-amide]
3 | 20.6 nM | C[C@H]1C(=O)N(CCCC(=O)N2CCC3(CC3)[C@H](O)C2)CCN1C(=O)Nc1ccc(C(F)(F)F)cc1 [Example 29, (S)-4-[4-((S)-4-Hydroxy-6-aza-spiro[2.5]oct-6-yl)-4-oxo-butyl]-2-methyl-3-oxo-piperazine-1-carboxylic acid (4-trifluoromethyl-phenyl)-amide]
4 | 1300 nM | O=C(/C=C/c1ccc(Cl)c(Cl)c1)N1CCC(=O)N(CCC(=O)N2CCCC(O)C2)CC1 (racemic) [Example 70, (rac)-1-[(E)-3-(3,4-Dichloro-phenyl)-acryloyl]-4-[3-(3-hydroxy-piperidin-1-yl)-3-oxo-propyl]-[1,4]diazepan-5-one]
5 | 4.3 nM | C[C@H]1C(=O)N([C@H](CO)CCC(=O)N2CCC3(CC3)[C@H](O)C2)CCN1C(=O)Nc1ccc(C(F)(F)F)c(Cl)c1 [Example 53, (S)-4-[(S)-4-((S)-4-Hydroxy-6-aza-spiro[2.5]oct-6-yl)-1-hydroxymethyl-4-oxo-butyl]-2-methyl-3-oxo-piperazine-1-carboxylic acid (3-chloro-4-trifluoromethyl-phenyl)-amide]
6 | 184 nM | O=C1NCC2(CCN(C(=O)CCN3CCN(C(=O)/C=C/c4ccc(Cl)c(Cl)c4)CCC3=O)CC2)O1 [Example 90, 8-(3-{4-[(E)-3-(3,4-Dichloro-phenyl)-acryloyl]-7-oxo-[1,4]diazepan-1-yl}-propionyl)-1-oxa-3,8-diaza-spiro[4.5]decan-2-one]
7 | 47.9 nM | CC(C)(C)C1(O)CCN(C(=O)CCN2CCN(C(=O)/C=C/c3ccc(Cl)c(Cl)c3)CCC2=O)CC1 [Example 84, 4-[3-(4-tert-Butyl-4-hydroxy-piperidin-1-yl)-3-oxo-propyl]-1-[(E)-3-(3,4-dichloro-phenyl)-acryloyl]-[1,4]diazepan-5-one]
8 | 5.4 nM | C[C@H]1C(=O)N(CC(O)CC(=O)N2CCC3(CC3)[C@H](O)C2)CCN1C(=O)Nc1ccc(C(F)(F)F)c(C(F)(F)F)c1 (stereo partly drawn) [Example 47, (S)-4-[(R,S)-2-Hydroxy-4-((S)-4-hydroxy-6-aza-spiro[2.5]oct-6-yl)-4-oxo-butyl]-2-methyl-3-oxo-piperazine-1-carboxylic acid (3,4-bis-trifluoromethyl-phenyl)-amide]
9 | 109 nM | C[C@@H]1CN(CCCC(=O)N2CCC3(CC3)[C@H](O)C2)C(=O)CCN1c1ccc(C(F)(F)F)c(Cl)c1 [Example 66, (R)-1-(3-Chloro-4-trifluoromethyl-phenyl)-4-[4-((S)-4-hydroxy-6-aza-spiro[2.5]oct-6-yl)-4-oxo-butyl]-2-methyl-[1,4]diazepan-5-one]
10 | 326 nM | O=C(/C=C/c1ccc(Cl)c(Cl)c1)N1CCC(=O)N(CCC(=O)N2CCC3(CCCO3)CC2)CC1 [Example 86, 1-[(E)-3-(3,4-Dichloro-phenyl)-acryloyl]-4-[3-(1-oxa-8-aza-spiro[4.5]dec-8-yl)-3-oxo-propyl]-[1,4]diazepan-5-one]
11 | 1040 nM | C[C@H]1C(=O)N(CCC(=O)N2CCC(C)(O)CC2)CCN1C(=O)Nc1ccc(Cl)c(Cl)c1 [Example 18, (S)-4-[3-(4-Hydroxy-4-methyl-piperidin-1-yl)-3-oxo-propyl]-2-methyl-3-oxo-piperazine-1-carboxylic acid (3,4-dichloro-phenyl)-amide]
12 | 3130 nM | C[C@H]1C(=O)N(CCCC(=O)N2CCC(C(F)(F)F)CC2)CCN1C(=O)Nc1cccc(Cl)c1 [Example 106, (S)-2-Methyl-3-oxo-4-[4-oxo-4-(4-trifluoromethyl-piperidin-1-yl)-butyl]-piperazine-1-carboxylic acid (3-chloro-phenyl)-amide]
13 | 6310 nM | COC(=O)[C@@H](CCC(=O)N1CCC2(CC2)[C@H](O)C1)N1CCN(C(=O)Nc2ccc(C(F)(F)F)c(Cl)c2)[C@@H](C)C1=O [Example 145, (R)-2-[(S)-4-(3-Chloro-4-trifluoromethyl-phenylcarbamoyl)-3-methyl-2-oxo-piperazin-1-yl]-5-((S)-4-hydroxy-6-aza-spiro[2.5]oct-6-yl)-5-oxo-pentanoic acid methyl ester]
14 | 1360 nM | C[C@H]1C(=O)N(CCCC(=O)N2CC[C@H](F)[C@@H](O)C2)CCN1C(=O)Nc1cccc(Cl)c1 (mixture of isomers) [Example 115, (S)-4-[4-((3SR,4SR)-4-Fluoro-3-hydroxy-piperidin-1-yl)-4-oxo-butyl]-2-methyl-3-oxo-piperazine-1-carboxylic acid (3-chloro-phenyl)-amide]
15 | 893 nM | C[C@H]1CCN(C(=O)CCCN2CCN(C(=O)Nc3cccc(Cl)c3)[C@@H](C)C2=O)C[C@H]1O [Example 111, (S)-4-[4-((3S,4S)-3-Hydroxy-4-methyl-piperidin-1-yl)-4-oxo-butyl]-2-methyl-3-oxo-piperazine-1-carboxylic acid (3-chloro-phenyl)-amide]
16 | 1160 nM | O=C1CC2(CCN(C(=O)CCN3CCN(C(=O)/C=C/c4ccc(Cl)c(Cl)c4)CCC3=O)CC2)C(=O)N1 [Example 93, 8-(3-{4-[(E)-3-(3,4-Dichloro-phenyl)-acryloyl]-7-oxo-[1,4]diazepan-1-yl}-propionyl)-2,8-diaza-spiro[4.5]decane-1,3-dione]
17 | 844 nM | C[C@H]1C(=O)N(CCC(=O)N2CC[C@](C)(CO)[C@H](O)C2)CCN1C(=O)Nc1ccc(Cl)c(Cl)c1 (mixture of isomers) [Example 21, (S)-4-[3-((3SR,4RS)-3-Hydroxy-4-hydroxymethyl-4-methyl-piperidin-1-yl)-3-oxo-propyl]-2-methyl-3-oxo-piperazine-1-carboxylic acid (3,4-dichloro-phenyl)-amide]
18 | 1420 nM | C[C@H]1C[C@H](O)CN(C(=O)CCCN2CCN(C(=O)Nc3cccc(Cl)c3)[C@@H](C)C2=O)C1 [Example 113, (S)-4-[4-((3S,5S)-3-Hydroxy-5-methyl-piperidin-1-yl)-4-oxo-butyl]-2-methyl-3-oxo-piperazine-1-carboxylic acid (3-chloro-phenyl)-amide]
19 | 1.8 nM | C[C@H]1C(=O)N([C@H](CO)CCC(=O)N2CCC3(CC3)[C@H](O)C2)CCN1C(=O)Nc1ccc(OC(F)(F)F)c(Cl)c1 [Example 55, (S)-4-[(S)-4-((S)-4-Hydroxy-6-aza-spiro[2.5]oct-6-yl)-1-hydroxymethyl-4-oxo-butyl]-2-methyl-3-oxo-piperazine-1-carboxylic acid (3-chloro-4-trifluoromethoxy-phenyl)-amide]
20 | 1290 nM | C[C@H]1C[C@H](O)CN(C(=O)CCN2C[C@@H](C)N(C(=O)/C=C/c3cccc(Cl)c3)CCC2=O)C1 [Example 103, (R)-1-[(E)-3-(3-Chloro-phenyl)-acryloyl]-4-[3-((3S,5S)-3-hydroxy-5-methyl-piperidin-1-yl)-3-oxo-propyl]-2-methyl-[1,4]diazepan-5-one]
21 | 4.5 nM | C[C@H]1C(=O)N([C@H](CO)CCC(=O)N2CCC3(CC3)[C@H](O)C2)CCN1C(=O)Nc1ccc(C(F)(F)F)c(C(F)(F)F)c1 [Example 144, (S)-4-[(S)-4-((S)-4-Hydroxy-6-aza-spiro[2.5]oct-6-yl)-1-hydroxymethyl-4-oxo-butyl]-2-methyl-3-oxo-piperazine-1-carboxylic acid (3,4-bis-trifluoromethyl-phenyl)-amide]
22 | 134 nM | C[C@H]1C(=O)N(CCC(O)C(=O)N2CCC3(CC3)[C@H](O)C2)CCN1C(=O)Nc1ccc(C(F)(F)F)c(Cl)c1 (stereo partly drawn) [Example 133, (S)-4-[(R,S)-3-Hydroxy-4-((S)-4-hydroxy-6-aza-spiro[2.5]oct-6-yl)-4-oxo-butyl]-2-methyl-3-oxo-piperazine-1-carboxylic acid (3-chloro-4-trifluoromethyl-phenyl)-amide]
23 | 1.7 nM | C[C@H]1C(=O)N(CCCC(=O)N2CCC3(CC3)[C@H](O)C2)CCN1C(=O)Nc1ccc(OC(F)(F)F)c(Cl)c1 [Example 34, (S)-4-[4-((S)-4-Hydroxy-6-aza-spiro[2.5]oct-6-yl)-4-oxo-butyl]-2-methyl-3-oxo-piperazine-1-carboxylic acid (3-chloro-4-trifluoromethoxy-phenyl)-amide]
24 | 152 nM | C[C@@H]1CN(CCC(=O)N2CCC(C)(O)CC2)C(=O)CCN1C(=O)/C=C/c1cccc(Cl)c1 [Example 102, (R)-1-[(E)-3-(3-Chloro-phenyl)-acryloyl]-4-[3-(4-hydroxy-4-methyl-piperidin-1-yl)-3-oxo-propyl]-2-methyl-[1,4]diazepan-5-one]
25 | 481 nM | O=C(/C=C/c1ccc(Cl)c(Cl)c1)N1CCC(=O)N(CCC(=O)N2CCC(CO)CC2)CC1 [Example 69, 1-[(E)-3-(3,4-Dichloro-phenyl)-acryloyl]-4-[3-(4-hydroxymethyl-piperidin-1-yl)-3-oxo-propyl]-[1,4]diazepan-5-one]
